Measured values from patent US20070117182A1, “Nucleic acids conferring transcriptional responsiveness on the RANKL gene promoter and uses thereof” (Wisconsin Alumni Research Foundation, priority 2005, published 2007).

Assays:
Assay type in all cases: cell-based, mouse
RANKL = test: RT-PCR of RANKL transcripts in treated ST2 cells; settings: treated up to 24 hours, agent alone, vs beta-actin controls
Method: FIG. 2. Induction of RANKL in ST2 cells by hormones and cytokines. ST2 cells were treated with the agents indicated for periods up to 24 hours. Total RNA was isolated and subjected to RT-PCR using a primer set to mouse RANKL and beta-actin. Positive vitamin D target control genes include Cyp24 and osteopontin (OPN).
The inventors first established a model in which RANKL is both induced in response to 1,25(OH)2D3, PTH (forskolin) and oncostatin M (OSM), and is capable of supporting osteoclast formation when co-cultured with bone marrow monocyte- or spleen cell-derived osteoclast precursors. While a number of cell types express RANKL and induce osteoclastogenesis, the historical literature strongly supports mouse ST2 cells in this capacity, prompting the inventors to focus on this stromal/preosteoblastic line for initial studies. […] Each of these components is known to both induce RANKL expression and promote osteoclast formation as well. […] Indeed, GC effects are widely observed. […] The ability of GCs to enhance osteoclast formation in coculture assays in the presence of 1,25(OH)2D3, however, is likely due also to its coordinate ability to suppress OPG.

[1] = tested on: D5 region of the RANKL gene (RL-CCL); test: pTK-RL(D5) luciferase reporter in ST2 cells; settings: 24 hours; for luciferase activity via D5 (RL-CCL), TK promoter: agent alone
Method: FIG. 6. Transcriptional activity of the D5 regions of the RANKL gene in the context of the TK promoter. Sequence surrounding the D5 region (1072 bp) was cloned into the pTK-luciferase vector and termed pTK-RL(D5). […] Cells were harvested after 24 hours and luciferase activity assessed. B) ST2 cells were transfected as in A above but without the VDR expression vector and evaluated as in A. C) COS-7 cells were transfected and evaluated as in A above. Luciferase was normalized using beta-gal activity. Data represent the mean of triplicate determinations (SEM). The pTK-luc control vector was unresponsive to any of the inducers (see FIG. 9). *, p<0.05 vs no treatment control.
FIG. 11. […] A) Coordinates of the RL-D5 and the RL-D5b regions in the mouse RANKL upstream region. ST2 cells were transfected with either B) pTK-luc or pTK-mRL-D5 or C) pTK-luc and pTK-mRL-D5b and then treated with the indicated inducers. Cells were harvested after 24 hours and evaluated for luciferase activity. Luciferase was normalized using β-gal activity. Data represent the mean of triplicate determinations (SEM). *, p<0.05 vs no treatment control. **, p<0.05 vs no treatment and 1,25(OH)2D3 treated controls.
The activity of an enhancer must be evaluated in the context of its local environment, preferentially in the context of both other enhancers and its native promoter. In the case of the RANKL gene, however, this is clearly not possible due to the numbers and the distant locations of the potential regulatory regions. To tackle this problem, the inventors isolated approximately 800 to 1100 bp fragments of each region (D1 to D5) as identified through the ChIP/Chip analysis, cloned each into a luciferase expression vector under the control of a viral thymidine kinase (TK) minimal promoter, and explored the 1,25(OH)2D3- and GC-inducible activity of each following transfection into ST2 cells. […] Nevertheless, positive results provide added support for the potential regulatory capabilities of an individual DNA fragment even when examined in isolation. […] This induction was magnified by the addition of a VDR expression vector (FIG. 6a), but was also evident in the absence of such addition (FIG. 6b). […] To ensure that the viral TK promoter background was not contributing to our evaluation, the inventors cloned the mouse RANKL promoter (−100 to +65) into pGL3, inserted RL D5 and evaluated its activity in ST2 cells as well.
Based upon the above data, the inventors explored the possibility that similar to 1,25(OH)2D3, forskolin, PGE2 and OSM might be capable of activating transcription via the D5 fragment of the RANKL gene. […] Cells were harvested 24 hours later and evaluated for luciferase activity as in the previous experiments. […]

[2] = tested on: RANKL gene upstream regions D1-D5; test: ChIP analysis of transcription factor binding to the RANKL gene in ST2 cells; settings: 6 hours
Method: FIG. 4. Confirmation of ChIP/chip data using ChIP. A) Linear arrangement of RANKL locus re-oriented 5′ to 3′ (left to right) indicating the positions of D5 to D1, P2, and P1/TSS. Designation of primer sets used for detection in ChIP is indicated. B) ST2 cells were treated with either vehicle or 1,25(OH)2D3 and then subjected to ChIP using antibodies to VDR, RXR or IgG. Precipitated DNA was evaluated using the primer sets identified in A.
FIG. 5. […] ST2 cells were treated with the above hormones and after 6 hours subjected to ChIP analysis using antibodies to VDR, RXR, GR, C/EBP, β, RNA pol II, and IgG. Precipitated DNA was evaluated for enrichment of the indicated regions of the RANKL gene.
FIG. 10. ChIP analysis of transcription factor binding to RL D5, the TSS and intervening regions of the RANKL locus in response to 1,25(OH)2D3, forskolin and oncostatin M (OSM). ST2 cells were treated for 6 hr with the indicated inducing agents and then subjected to ChIP analysis using antibodies to the indicated factors. Precipitated DNA was analyzed by PCR for enrichment of IS7, D5, IS6 and the TSS of the RANKL gene locus. See text for details of results.
The isolated DNA was then evaluated by PCR using primers as depicted in the diagram seen in FIG. 4a which were designed to amplify small DNA segments within the 5 regions as well as segments located at intervening sites (IS) outside the five regions.
The inventors hypothesized that GC's might perhaps enhance VDR binding to RANKL regulatory regions. […] The inventors focused on the RL-CCL region (D5) and amplified the precipitated DNA using primers to this region of the gene as well as to D4, D3 and TSS and intervening regions. […] The inventors also explored the possibility that C/EBPbeta might similarly participate in the RANKL activation process. C/EBPbeta plays a significant role in the regulation of osteoblastic genes, and is found associated with both 1,25(OH)2D3 and GC target genes.
In addition to 1,25(OH)2D3 and GCs, RANKL expression is also known to be modulated by such factors as PTH, PGE2, the gp130-activating cytokines IL-6 and OSM, as well as IL-1beta and TNFalpha. […] Forskolin was used as substitute for PTH, however, as ST2 cells are deficient in PTH receptor (PTHR). Both PTH/forskolin and PGE2 are known to induce RANKL gene expression via CREB whereas OSM functions via Stat3. […] The inventors therefore explored the possibility that the RL-CCL might represent a focal target for these inducers via either CREB or Stat3 in the RANKL gene locus. ST2 cells were treated with either vehicle, 1,25(OH)2D3, forskolin or OSM for a 6 hour period and then subjected to a ChIP analysis using antibodies to VDR, C/EBPbeta, CREB, phospho-CREB, ATF-2, ATF-4, Stat3, RNA pol II and control IgG. Isolated DNA was then subjected to amplification using primers corresponding to the D5 region (RL-CCL) of the RANKL gene. As controls, the inventors also assessed the extent to which the immunoprecipitations led to the enrichment of DNA at sites surrounding the D5 region of the RANKL gene.

Row | Compound | RANKL transcripts (RANKL) | luciferase activity via D5 (RL-CCL), TK promoter [1] | CREB binding to the D5 region [2] | Stat3 binding to the D5 region [2] | VDR binding to RANKL regulatory regions (D5) ([2]; agent alone) | increase in transcriptional output via mRL-D5 ([1]; OSM 20 ng/ml)
1 | CCCCC[C@H](O)/C=C/[C@H]1[C@H](O)CC(=O)[C@@H]1C/C=C\CCCC(=O)O [PGE2] | substantial time-dependent increase | not forskolin or PGE2 |  |  |  | 
2 | oncostatin M [OSM] | substantial time-dependent increase | responsive | modestly increased CREB association | induces significant binding of Stat3 | no effect on VDR binding | 3 fold
3 | TNFalpha | substantial time-dependent increase |  |  |  |  | 
4 | IL-1beta: cytokine known to induce RANKL expression | substantial time-dependent increase |  |  |  |  | 
